{"source": "patent US12173042B2", "about": "“Methods of treating cancers with CT45 targeted therapies” (The University of Chicago, priority 2016, dated 2024)", "key": {"[1]": {"test_system": "DNA damage in CT45-expressing cells", "assay": "Comet assay", "assay_type": "cell-based, human", "conditions": "day 5", "protocol": "Cells were treated with carboplatin for 3 days and then incubated an additional 2 days without drug. The comet assay was performed on day 5 as previously described39. Briefly, 2.5e4 cells/condition were resuspended in 70 uL 0.5% low melting point agarose (LMPA) at 37 C and plated on a glass slide precoated with 1% agarose in PBS. Samples were allowed to solidify at 4 C for 20 minutes with a square cover glass. The cover class was gently removed and a second 70 uL layer of 0.5% LMPA was applied and again allowed to solidify. The cover glass was removed and the slides immersed in Comet Lysis solution (2.5M NaCl, 100 mM EDTA, 10 mM Tris, 0.015% Triton X-100, pH 10) for one hour at 4 C and from this point forward protected from light. After lysis, the slides were equilibrated for 20 minutes in Comet Electrophoresis Buffer (0.3N NaOH, 1 mM EDTA, […]) at 4 C, and then run at 25V for 20 minutes. […] At least 100 cells were quantified/sample using the software OpenComet40. […]\nCells were treated with carboplatin for 3 days and then incubated an additional 2 days without drug. […] At least 100 cells were quantified/sample using the software OpenComet. […]"}, "59M cells": {"test_system": "59M cells", "assay": "Colony assay of carboplatin treated 59M cells with siRNA", "assay_type": "cell-based, human", "conditions": "cells deficient in PP4 or expressing CT45", "source_text": "FIG. 23. Cell deficient in PP4 or expressing the endogenous PP4 inhibitor CT45 are hypersensitive to carboplatin treatment. Shown are colony assay results of carboplatin treated 59M cells transfected with a control siRNA, PP4C siRNA or CT45 siRNA. Colony numbers are normalized to untreated cells of each siRNA."}, "[2]": {"test_system": "OVCAR5-V5 (control plasmid) tumors", "assay": "Subcutaneous tumor growth in nude mice, control vector tumors", "assay_type": "in vivo, athymic nude mice", "conditions": "carboplatin 20 mg/kg tail vein 1 time/week, control cell line", "protocol": "(§1) 5 million OVCAR5-V5 or OVCAR5-V5-CT45 cells suspended in a 1:2 solution of serum-free media to growth-factor reduced matrigel were injected subcutaneously into the right and left flanks respectively, of 8 week old female athymic nude mice. After 5 days, treatment was administered through the tail vein 1 time/week at 20 mg/kg. Sterile water served as the control treatment. Tumor growth was measured every 2-3 days using calipers until the tumor neared 1 cm3 and was measured daily. Once the tumor reached 1 cm3 the mouse was sacrificed. 4 mice were removed from the study early due to ulcerations of the skin. All experiments were approved by the Institutional Animal Care and Use Committee of the University of Chicago.\nas §1, with “Five million” for “5 million”, “8 weeks” for “8 week”, “1 cm^3” for “1 cm3”, “skin. […]” for “skin. All experiments were approved by the Institutional Animal Care and Use Committee of the University of Chicago.”"}}, "note": "Entries after “also recorded” stand apart in the source; their conditions may differ.", "data": [{"smiles": "N.N.O=C([O-])C1(C(=O)[O-])CCC1.[Pt+2]", "note": "[carboplatin]", "values": [{"measurement": "DNA damage (tail moment)", "setting": "[1]", "result": "higher levels of DNA damage; also recorded: more DNA damage"}, {"measurement": "sensitivity of colony formation to carboplatin", "setting": "59M cells", "result": "hypersensitive"}, {"measurement": "tumor growth", "setting": "[2]", "result": "no effect"}]}]}
